Earlier results, collected in patent US6531463B1, “Method for producing a fat mixture” (Spice Sciences Oy, priority 1998, dated 2003).

How the values were obtained:
[1] = test system: serum cholesterol; conditions: in vivo
[2] = test system: absorption of cholesterol; conditions: for decrease of the absorption of cholesterol: nine adult patients, 5 days, 500 mg of cholesterol, 1 gram of β-sitosterol or 2 grams of β-sitosteryl oleate
[3] = administered orally
[4] = test system: cholesterol levels, atherogenesis; conditions: added to the feed of cholesterol fed rabbits
[5] = test system: cholesterol levels; conditions: added to the feed of cholesterol fed chicken
[6] = test system: cholesterol levels; conditions: preparations studied in 1950's and 1960's
[7] = test system: absorption of cholesterol

Molecule	lowering of the LDL-cholesterol level [1]	lowering of the total serum cholesterol level [1]	reduction of the absorption of cholesterol from food ([2]; 1 gram of β-sitosterol, food containing 500 mg of cholesterol)	decrease of the absorption of cholesterol [2]	proportion absorbed [3]	atherogenesis [4]	cholesterol levels [4]	cholesterol levels [5]	lowering of cholesterol levels [6]	absorption of cholesterol ([7]; female rats (Uchita et al.))	cholesterol balance in plasma and liver ([7]; female rats (Uchita et al.))	inhibition of absorption of cholesterol ([7]; rats (Vahouny et al.))
CC[C@H](CC[C@@H](C)[C@H]1CC[C@H]2[C@@H]3CC=C4C[C@@H](O)CC[C@]4(C)[C@H]3CC[C@]12C)C(C)C [β-sitosterol, stigmasta-5-en-3β-ole]	19%	10-15%	42%	42%	less than 5%	prevented atherogenesis	cholesterol levels were lowered	cholesterol levels were lowered	–	–	–	–
CCCCCCCC/C=C\CCCCCCCC(=O)O[C@H]1CC[C@@]2(C)C(=CC[C@H]3[C@@H]4CC[C@H]([C@H](C)CC[C@@H](CC)C(C)C)[C@@]4(C)CC[C@@H]32)C1 [β-sitoteryl oleate, β-sitosteryl oleate]	–	–	–	33%	–	–	–	–	–	–	–	–
sitosterol	–	–	–	–	–	–	–	–	about 10%	inhibits absorption of cholesterol	lowers cholesterol balance in plasma and liver	54%
